The subject of the assay is RAW264.7. Description: Antiinflammatory activity in mouse RAW264.7 cells assessed as inhibition of LPS-stimulated nitric oxide production treated for 2 hrs before LPS challenge measured after 24 hrs […]. It is filed as functional, cell-based. For orientation: An ELISA detects its analyte on a solid surface through an enzyme-linked reagent.

For the compound `COC(=O)c1cc2c([nH]c3ccccc32)c(C(C)=O)n1`, the IC50 (usually the point on the concentration scale where inhibition reaches its midpoint) was determined as 17.9 µM.
With `COC(=O)/C=C/NC(=O)c1cc2c([nH]c3ccccc32)c(C(C)=O)n1` [DICHOTOMIDE III], the IC50 was 17.3 µM.
As for `C/C=C(/C)C(=O)O[C@@H](C)c1nc(C(=O)N/C=C/C(=O)OC)cc2c1[nH]c1ccccc12` [DICHOTOMIDE X], the IC50 stood at 11.3 µM.
As to `N=C(N)NN` [PIMAGEDINE], the IC50 is 4.6 µM.
Turning to `CC(=O)c1nc(C(N)=O)cc2c1[nH]c1ccccc12` [STELLARINES A], the IC50 was 19.3 µM.
On to `COC(=O)/C=C\NC(=O)c1cc2c([nH]c3ccccc32)c(C(C)=O)n1` [STELLARINES B], for which the IC50 amounted to 18.6 µM.

Source of the values: ChEMBL document CHEMBL1649360, “β-carboline alkaloids from Stellaria dichotoma var. lanceolata and their anti-inflammatory activity” (J Nat Prod, 2010).
